{"source": "ChEMBL document CHEMBL1201862", "about": "“PubChem BioAssay data set” (2004)", "assay_in_all_cases": "NCI tumour cell line growth inhibition, 48 h", "key": {"EKVX": {"system": "EKVX"}, "HCC 2998": {"system": "HCC 2998"}, "NCI-H23": {"system": "NCI-H23"}, "SF-539": {"system": "SF-539"}, "HOP-62": {"system": "HOP-62"}, "HL-60": {"system": "HL-60"}, "SF-268": {"system": "SF-268"}, "OVCAR-8": {"system": "OVCAR-8"}, "A549": {"system": "A549"}, "T47D": {"system": "T47D"}, "LOX IMVI": {"system": "LOX IMVI"}, "Malme-3M": {"system": "Malme-3M"}, "BT-549": {"system": "BT-549"}, "TK-10": {"system": "TK-10"}, "HCT-116": {"system": "HCT-116"}, "A498": {"system": "A498"}, "SW-620": {"system": "SW-620"}, "SK-MEL-5": {"system": "SK-MEL-5"}, "DU-145": {"system": "DU-145"}, "CAKI-1": {"system": "CAKI-1"}}, "note": "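Five compound concentrations were applied to cells in 96-well plates for 48 hours; endpoints were derived by simple linear interpolation of the resulting dose-response curve. Abbreviation: GI50, concentration required for 50% inhibition of growth.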 Calls of active or inactive are those of the source. No stated cut-off is given here; in the data, active = GI50 up to about 1.1 µM and inactive = higher.", "data": [{"smiles": "COc1ccc(-c2cc(-c3ccccc3)nc(N)n2)c(O)c1", "values": [{"measurement": "GI50", "setting": "EKVX", "result": "> 24.9 µM (inactive)"}, {"measurement": "GI50", "setting": "HCC 2998", "result": "> 100 µM (inactive)"}, {"measurement": "GI50", "setting": "NCI-H23", "result": "> 100 µM (inactive)"}, {"measurement": "GI50", "setting": "SF-539", "result": "> 100 µM (inactive)"}, {"measurement": "GI50", "setting": "HOP-62", "result": "> 49.5 µM (inactive)"}, {"measurement": "GI50", "setting": "HL-60", "result": "2.02 µM (inactive)"}, {"measurement": "GI50", "setting": "SF-268", "result": "17.8 µM (inactive)"}, {"measurement": "GI50", "setting": "OVCAR-8", "result": "8.69 µM (inactive)"}, {"measurement": "GI50", "setting": "A549", "result": "12.8 µM (inactive)"}, {"measurement": "GI50", "setting": "T47D", "result": "5.86 µM (inactive)"}, {"measurement": "GI50", "setting": "LOX IMVI", "result": "6.78 µM (inactive)"}, {"measurement": "GI50", "setting": "Malme-3M", "result": "> 100 µM (inactive)"}, {"measurement": "GI50", "setting": "BT-549", "result": "1.7 µM (inactive)"}, {"measurement": "GI50", "setting": "TK-10", "result": "> 100 µM (inactive)"}, {"measurement": "GI50", "setting": "HCT-116", "result": "> 100 µM (inactive)"}, {"measurement": "GI50", "setting": "A498", "result": "> 100 µM (inactive)"}, {"measurement": "GI50", "setting": "SW-620", "result": "5.32 µM (inactive)"}, {"measurement": "GI50", "setting": "SK-MEL-5", "result": "7.16 µM (inactive)"}]}, {"smiles": "Nc1nc(NNc2ccc(Cl)c(Cl)c2)cc(=O)[nH]1", "values": [{"measurement": "GI50", "setting": "EKVX", "result": "39.2 µM (inactive)"}, {"measurement": "GI50", "setting": "HCC 2998", "result": "19.8 µM (inactive)"}, {"measurement": "GI50", "setting": "NCI-H23", "result": "34 µM (inactive)"}, {"measurement": "GI50", "setting": "SF-539", "result": "99.1 µM (inactive)"}, {"measurement": "GI50", "setting": "HOP-62", "result": "70.8 µM (inactive)"}, {"measurement": "GI50", "setting": "DU-145", "result": "35.8 µM (inactive)"}, {"measurement": "GI50", "setting": "HL-60", "result": "26.4 µM (inactive)"}, {"measurement": "GI50", "setting": "SF-268", "result": "19.7 µM (inactive)"}, {"measurement": "GI50", "setting": "OVCAR-8", "result": "44.9 µM (inactive)"}, {"measurement": "GI50", "setting": "A549", "result": "45.7 µM (inactive)"}, {"measurement": "GI50", "setting": "LOX IMVI", "result": "17.3 µM (inactive)"}, {"measurement": "GI50", "setting": "Malme-3M", "result": "46.9 µM (inactive)"}, {"measurement": "GI50", "setting": "BT-549", "result": "33.7 µM (inactive)"}, {"measurement": "GI50", "setting": "TK-10", "result": "> 100 µM (inactive)"}, {"measurement": "GI50", "setting": "HCT-116", "result": "52.4 µM (inactive)"}, {"measurement": "GI50", "setting": "A498", "result": "> 100 µM (inactive)"}, {"measurement": "GI50", "setting": "SW-620", "result": "22.8 µM (inactive)"}, {"measurement": "GI50", "setting": "SK-MEL-5", "result": "33.4 µM (inactive)"}]}, {"smiles": "CC(C)Cc1ccc(C(C)/C=C2\\CCC(CN3CCOCC3)C2=O)cc1", "note": "(configuration not stated)", "values": [{"measurement": "GI50", "setting": "EKVX", "result": "18 µM (inactive)"}, {"measurement": "GI50", "setting": "HCC 2998", "result": "11.6 µM (inactive)"}, {"measurement": "GI50", "setting": "NCI-H23", "result": "12.9 µM (inactive)"}, {"measurement": "GI50", "setting": "SF-539", "result": "12.5 µM (inactive)"}, {"measurement": "GI50", "setting": "HOP-62", "result": "11.7 µM (inactive)"}, {"measurement": "GI50", "setting": "DU-145", "result": "13.7 µM (inactive)"}, {"measurement": "GI50", "setting": "HL-60", "result": "2.69 µM (inactive)"}, {"measurement": "GI50", "setting": "SF-268", "result": "6.87 µM (inactive)"}, {"measurement": "GI50", "setting": "OVCAR-8", "result": "3.61 µM (inactive)"}, {"measurement": "GI50", "setting": "A549", "result": "18.6 µM (inactive)"}, {"measurement": "GI50", "setting": "LOX IMVI", "result": "2.33 µM (inactive)"}, {"measurement": "GI50", "setting": "CAKI-1", "result": "18 µM (inactive)"}, {"measurement": "GI50", "setting": "Malme-3M", "result": "13.5 µM (inactive)"}, {"measurement": "GI50", "setting": "BT-549", "result": "17.9 µM (inactive)"}, {"measurement": "GI50", "setting": "TK-10", "result": "5.82 µM (inactive)"}, {"measurement": "GI50", "setting": "HCT-116", "result": "5.26 µM (inactive)"}, {"measurement": "GI50", "setting": "A498", "result": "12.5 µM (inactive)"}, {"measurement": "GI50", "setting": "SW-620", "result": "3 µM (inactive)"}, {"measurement": "GI50", "setting": "SK-MEL-5", "result": "10.4 µM (inactive)"}]}, {"smiles": "C=CCn1c(-c2ccc([N+](=O)[O-])cc2)cs/c1=N\\C(P(=O)(O)O)P(=O)(O)O", "values": [{"measurement": "GI50", "setting": "EKVX", "result": "> 100 µM (inactive)"}, {"measurement": "GI50", "setting": "HCC 2998", "result": "> 100 µM (inactive)"}, {"measurement": "GI50", "setting": "NCI-H23", "result": "> 100 µM (inactive)"}, {"measurement": "GI50", "setting": "SF-539", "result": "> 100 µM (inactive)"}, {"measurement": "GI50", "setting": "HOP-62", "result": "> 100 µM (inactive)"}, {"measurement": "GI50", "setting": "DU-145", "result": "> 100 µM (inactive)"}, {"measurement": "GI50", "setting": "HL-60", "result": "0.0383 µM (active)"}, {"measurement": "GI50", "setting": "SF-268", "result": "> 100 µM (inactive)"}, {"measurement": "GI50", "setting": "OVCAR-8", "result": "> 100 µM (inactive)"}, {"measurement": "GI50", "setting": "A549", "result": "> 100 µM (inactive)"}, {"measurement": "GI50", "setting": "LOX IMVI", "result": "> 100 µM (inactive)"}, {"measurement": "GI50", "setting": "CAKI-1", "result": "> 100 µM (inactive)"}, {"measurement": "GI50", "setting": "Malme-3M", "result": "> 100 µM (inactive)"}, {"measurement": "GI50", "setting": "BT-549", "result": "> 100 µM (inactive)"}, {"measurement": "GI50", "setting": "TK-10", "result": "> 100 µM (inactive)"}, {"measurement": "GI50", "setting": "HCT-116", "result": "> 100 µM (inactive)"}, {"measurement": "GI50", "setting": "A498", "result": "> 100 µM (inactive)"}, {"measurement": "GI50", "setting": "SW-620", "result": "> 100 µM (inactive)"}, {"measurement": "GI50", "setting": "SK-MEL-5", "result": "> 100 µM (inactive)"}]}, {"smiles": "Cc1cc2cc3c(cc2c(-c2ccc(N)cc2)n1)OCO3", "values": [{"measurement": "GI50", "setting": "EKVX", "result": "35.4 µM (inactive)"}, {"measurement": "GI50", "setting": "NCI-H23", "result": "61.2 µM (inactive)"}, {"measurement": "GI50", "setting": "SF-539", "result": "> 100 µM (inactive)"}, {"measurement": "GI50", "setting": "HOP-62", "result": "57.1 µM (inactive)"}, {"measurement": "GI50", "setting": "DU-145", "result": "49.9 µM (inactive)"}, {"measurement": "GI50", "setting": "HL-60", "result": "12 µM (inactive)"}, {"measurement": "GI50", "setting": "SF-268", "result": "22.3 µM (inactive)"}, {"measurement": "GI50", "setting": "OVCAR-8", "result": "81.7 µM (inactive)"}, {"measurement": "GI50", "setting": "A549", "result": "74.1 µM (inactive)"}, {"measurement": "GI50", "setting": "T47D", "result": "29.6 µM (inactive)"}, {"measurement": "GI50", "setting": "CAKI-1", "result": "26.5 µM (inactive)"}, {"measurement": "GI50", "setting": "Malme-3M", "result": "86.9 µM (inactive)"}, {"measurement": "GI50", "setting": "BT-549", "result": "> 100 µM (inactive)"}, {"measurement": "GI50", "setting": "TK-10", "result": "39.9 µM (inactive)"}, {"measurement": "GI50", "setting": "HCT-116", "result": "31.6 µM (inactive)"}, {"measurement": "GI50", "setting": "SW-620", "result": "31.6 µM (inactive)"}, {"measurement": "GI50", "setting": "SK-MEL-5", "result": "24.2 µM (inactive)"}]}, {"smiles": "O=C([O-])Cc1ccccc1.[Na+]", "note": "[SODIUM PHENYLACETATE]", "values": [{"measurement": "GI50", "setting": "EKVX", "result": "> 2000 µM (inactive)"}, {"measurement": "GI50", "setting": "HCC 2998", "result": "1210 µM (inactive)"}, {"measurement": "GI50", "setting": "NCI-H23", "result": "> 2000 µM (inactive)"}, {"measurement": "GI50", "setting": "SF-539", "result": "> 2000 µM (inactive)"}, {"measurement": "GI50", "setting": "HOP-62", "result": "200 µM (inactive)"}, {"measurement": "GI50", "setting": "SF-268", "result": "1340 µM (inactive)"}, {"measurement": "GI50", "setting": "OVCAR-8", "result": "611 µM (inactive)"}, {"measurement": "GI50", "setting": "A549", "result": "1410 µM (inactive)"}, {"measurement": "GI50", "setting": "T47D", "result": "774 µM (inactive)"}, {"measurement": "GI50", "setting": "LOX IMVI", "result": "1160 µM (inactive)"}, {"measurement": "GI50", "setting": "Malme-3M", "result": "706 µM (inactive)"}, {"measurement": "GI50", "setting": "BT-549", "result": "723 µM (inactive)"}, {"measurement": "GI50", "setting": "TK-10", "result": "1130 µM (inactive)"}, {"measurement": "GI50", "setting": "A498", "result": "519 µM (inactive)"}, {"measurement": "GI50", "setting": "SW-620", "result": "804 µM (inactive)"}, {"measurement": "GI50", "setting": "SK-MEL-5", "result": "869 µM (inactive)"}]}]}
